Test results reported in patent US20230295212A1 (ROME Therapeutics, Inc., priority 2022, published 2023).
Structures can show the parent of a compound that is named as a salt.

Tests used:
[1] = biological target: T1, LINE1 reverse transcriptase (recombinant MBP-tagged LINE1 protein (238-1061)) (Homo sapiens, UniProt O00370); assay: Homogeneous time-resolved fluorescence (HTRF) LINE1 RT assay; type: biochemical; settings: triphosphate analogs, LINE1 enzyme 64 ng/well, 25° C. 60 minutes
T1 construct: recombinant MBP-tagged LINE1 protein (238-1061); made in house
Protocol: Exemplary triphosphate analogs were tested for the ability to inhibit LINE1 reverse transcriptase using a homogeneous time-resolved fluorescence (HTRF) assay. Assay procedures and results are described below.
The LINE1 reverse transcriptase homogeneous time-resolved fluorescence (HTRF) assay was performed with recombinant MBP-tagged LINE1 protein (238-1061) (generated and purified according to procedures in Dai L. et al. BMC Biochemistry 2011; 12:18) in a 384-well format. Test compound was serially diluted in DMSO and further diluted in the assay buffer (50 mM Tris-HCl, 50 mM KCl, 10 mM MgCl2, 10 mM DTT, pH 8.1) to achieve a final DMSO concentration of 1%. The serially diluted compound was mixed with 64 ng/well of LINE1 enzyme, 5 nM of pre-annealed template/biotin-primer pair (synthesized at Generay Biotechnology), 10 nM of Fluorescein-12-dCTP fluorescent probe (PerkinElmer), and 1 μM dGTP/dATP/dTTP (ThermoFisher Scientific) in the assay buffer. The template/biotin-primer sequences were as follows:
After incubating at 25° C. for 60 minutes, the detection reagent (20 mM EDTA with streptavidin-terbium cryptate, Cisbio Bioassay) in the PPI buffer (Cisbio Bioassay) was added, and the mixture was incubated at 25° C. for 30 minutes. At the end of the incubation, fluorescence was read at ex/em=337/485 nm and ex/em=337/520 nm on an Envision 2104 plate reader (PerkinElmer). The fluorescence ratio at 520/485 nm was used for the calculation. […] The IC50 was calculated by fitting the compound dose inhibition curve with a 4-parameter non-linear regression equation.

[2] = biological target: T2, human telomerase (Homo sapiens, UniProt O14746); assay: Human telomerase PCR ELISA assay (MCF-7 cell lysate); type: biochemical; settings: triphosphates, 0.2 μg MCF-7 lysate
T2 construct: endogenous in cells; host or cells: MCF-7 cell lysate
T2 sequence (O14746 whole entry): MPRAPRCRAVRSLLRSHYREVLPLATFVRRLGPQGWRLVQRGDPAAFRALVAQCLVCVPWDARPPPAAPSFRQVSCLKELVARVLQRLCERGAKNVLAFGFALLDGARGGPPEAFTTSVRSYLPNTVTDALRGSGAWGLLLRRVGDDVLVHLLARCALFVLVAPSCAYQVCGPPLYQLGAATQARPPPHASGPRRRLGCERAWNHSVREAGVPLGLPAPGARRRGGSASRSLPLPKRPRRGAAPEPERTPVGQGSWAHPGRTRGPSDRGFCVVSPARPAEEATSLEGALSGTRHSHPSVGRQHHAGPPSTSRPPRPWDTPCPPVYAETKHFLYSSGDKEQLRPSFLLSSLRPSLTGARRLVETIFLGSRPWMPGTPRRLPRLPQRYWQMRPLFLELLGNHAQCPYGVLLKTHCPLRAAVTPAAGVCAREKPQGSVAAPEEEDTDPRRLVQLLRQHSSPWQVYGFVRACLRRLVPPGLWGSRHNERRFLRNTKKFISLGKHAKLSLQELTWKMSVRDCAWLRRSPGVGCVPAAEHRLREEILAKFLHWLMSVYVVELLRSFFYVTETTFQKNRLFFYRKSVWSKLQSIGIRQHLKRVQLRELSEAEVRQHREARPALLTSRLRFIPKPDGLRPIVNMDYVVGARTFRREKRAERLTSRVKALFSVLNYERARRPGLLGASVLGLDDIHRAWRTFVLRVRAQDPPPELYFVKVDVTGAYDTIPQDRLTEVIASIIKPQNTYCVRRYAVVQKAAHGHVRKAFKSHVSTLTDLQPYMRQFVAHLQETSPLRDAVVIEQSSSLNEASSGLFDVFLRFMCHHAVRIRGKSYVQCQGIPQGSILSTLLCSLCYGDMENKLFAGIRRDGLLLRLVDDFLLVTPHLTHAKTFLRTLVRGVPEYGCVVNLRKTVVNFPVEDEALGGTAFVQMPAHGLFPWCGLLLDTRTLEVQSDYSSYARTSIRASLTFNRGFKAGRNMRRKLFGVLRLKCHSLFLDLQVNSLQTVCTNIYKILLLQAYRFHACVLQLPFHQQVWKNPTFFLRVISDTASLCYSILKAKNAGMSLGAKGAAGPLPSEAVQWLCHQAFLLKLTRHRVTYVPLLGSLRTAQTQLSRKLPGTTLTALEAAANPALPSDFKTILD
T2 sequence (O60832 whole entry partner): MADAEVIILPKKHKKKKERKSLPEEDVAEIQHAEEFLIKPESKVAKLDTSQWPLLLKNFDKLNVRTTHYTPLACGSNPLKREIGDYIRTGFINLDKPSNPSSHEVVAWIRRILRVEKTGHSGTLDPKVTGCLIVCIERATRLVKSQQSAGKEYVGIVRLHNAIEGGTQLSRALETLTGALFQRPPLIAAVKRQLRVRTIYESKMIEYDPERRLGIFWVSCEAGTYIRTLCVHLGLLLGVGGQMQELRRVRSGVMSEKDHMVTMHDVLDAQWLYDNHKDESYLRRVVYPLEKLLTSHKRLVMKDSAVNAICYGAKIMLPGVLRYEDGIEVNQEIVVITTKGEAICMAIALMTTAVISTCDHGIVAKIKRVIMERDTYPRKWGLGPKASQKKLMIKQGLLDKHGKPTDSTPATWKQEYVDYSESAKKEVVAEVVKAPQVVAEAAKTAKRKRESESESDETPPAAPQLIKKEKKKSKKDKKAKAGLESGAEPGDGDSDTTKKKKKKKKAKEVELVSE
T2 sequence (Q9NX24 whole entry partner): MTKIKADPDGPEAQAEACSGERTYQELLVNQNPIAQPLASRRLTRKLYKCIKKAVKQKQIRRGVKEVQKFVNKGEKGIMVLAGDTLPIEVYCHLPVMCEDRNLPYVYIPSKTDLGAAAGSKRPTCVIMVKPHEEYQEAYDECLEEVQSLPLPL
T2 sequence (Q9NPE3 whole entry partner): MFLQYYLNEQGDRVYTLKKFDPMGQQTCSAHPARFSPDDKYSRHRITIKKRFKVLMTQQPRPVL
T2 sequence (Q9NY12 whole entry partner): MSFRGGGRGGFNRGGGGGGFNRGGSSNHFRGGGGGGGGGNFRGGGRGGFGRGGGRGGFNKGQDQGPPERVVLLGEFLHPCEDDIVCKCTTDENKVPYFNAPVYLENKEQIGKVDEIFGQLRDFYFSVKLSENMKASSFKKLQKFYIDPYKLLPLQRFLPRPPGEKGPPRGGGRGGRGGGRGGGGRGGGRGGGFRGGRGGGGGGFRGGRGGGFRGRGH
Protocol: Exemplary compounds were tested for ability to inhibit human telomerase using a PCR ELISA assay. Off-target inhibition of human telomerase can result in undesired cellular toxicity, e.g., triggering replicative senescence and/or apoptotic cell death. Assay procedures and results are described below.
The human telomerase assay was performed with telomerase in the MCF-7 cell lysate using the Telo TAGGG Telomerase PCR ELISA^Plus kit (Roche) per manufacturer's instruction. MCF-7 cells were lysed in the lysis buffer and the supernatant was used for the assay. Test compound was serially diluted in water and mixed with 0.2 μg of MCF-7 lysate in PCR tubes and incubate at room temperature for 15 minutes. The PCR reaction mixture was then added, the tubes were transferred to a thermal cycler (Analytikjena) and the telomerase elongation reaction was performed for 30 minutes followed by 30 PCR cycles with the following protocol:
Mix 2.5 μL of PCR amplification product from above to 10 μl of denature reagent to each well of a PCR plate and incubate at room temperature for 10 minutes. Add in 100 μl of hybridization buffer T and mix well. Transfer 100 μl per well of the reaction mixture to the precoated MP module, incubate at 37° C. for 2 hours. Remove the hybridization solution, wash three times with the wash buffer, add anti-DIG-HRP solution, incubate at room temperature for 30 minutes. Remove the anti-DIG-HRP solution and wash five times with the wash buffer. Add TMB substrate and incubate at room temperature for 10 minutes. Measure the absorbance at 450 nm using Envision (PerkinElmer).

[3] = biological target: T3, LINE1 reverse transcriptase (Homo sapiens, UniProt O00370); assay: Stable artificial-intron Cis LINE1 reporter assay (HeLa Tet-On 3G, Firefly luciferase); type: cell-based; settings: HeLa L1 artificial-intron reporter cells, doxycycline 500 ng/mL, 72 h, class symbols
T3 construct: expressed in transfected cells; host or cells: HeLa Tet-On 3G (Takara, cat no 631183)
How it was run: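 HeLa Tet-On 3G clone stably carrying a bi-directional doxycycline-inducible artificial-intron LINE1 reporter, plated at 8,000 cells/well onto serially diluted compound. Expression induced with 500 ng/mL doxycycline (final); Firefly luciferase luminescence (Dual-Glo) read 72 h after plating as LINE1 activity.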

| SMILES | IC50 [1] | IC50 [2] | IC50 [3] |
| --- | --- | --- | --- |
| CC[C@]1(COP(=O)(O)OP(=O)(O)OP(=O)(O)O)O[C@@H](n2ccc(N)nc2=O)C[C@@H]1O [44-TP] | 0.108 µM | 25 to 50 µM | – |
| Nc1ccn([C@H]2C[C@H](O)[C@](CO)(CCl)O2)c(=O)n1 [Compound 2, 4-amino-1-((2R,4S,5R)-5-(chloromethyl)-4-hydroxy-5-(hydroxymethyl)tetrahydrofuran-2-yl)pyrimidin-2(1H)-one] | – | – | ≤ 0.05 µM |
| Nc1ccn([C@H]2C[C@H](O)[C@@](CCl)(COP(=O)(O)OP(=O)(O)OP(=O)(O)O)O2)c(=O)n1 [Compound 2-TP] | 0.0475 µM | ≤ 1 µM | – |
| Nc1nc(=O)n([C@H]2C[C@H](O)[C@@](CCl)(COP(=O)(O)OP(=O)(O)OP(=O)(O)O)O2)cc1F [Compound 14-TP, ((2R,3S,5R)-5-(4-amino-5-fluoro-2-oxopyrimidin-1(2H)-yl)-2-(chloromethyl)-3-hydroxytetrahydrofuran-2-yl)methyl tetrahydrogen triphosphate TEA Salt] | 0.272 µM | ≤ 1 µM | – |
| C#C[C@]1(COP(=O)(O)OP(=O)(O)OP(=O)(O)O)O[C@@H](n2ccc(N)nc2=O)[C@@H](F)[C@@H]1O [Compound 35-TP] | 0.0137 µM | > 100 µM | – |
| Nc1ccn([C@@H]2O[C@](CCl)(COP(=O)(O)OP(=O)(O)OP(=O)(O)O)[C@@H](O)[C@@H]2F)c(=O)n1 [Compound 40-TP] | 0.831 µM | > 100 µM | – |
| C=C[C@]1(COP(=O)(O)OP(=O)(O)OP(=O)(O)O)O[C@@H](n2ccc(N)nc2=O)C[C@@H]1O [Compound 43-TP] | 0.081 µM | 1 to 25 µM | – |
| Nc1nc(=O)n([C@@H]2O[C@](CCl)(COP(=O)(O)OP(=O)(O)OP(=O)(O)O)[C@@H](O)[C@@H]2F)cc1F [Compound 67-TP] | 0.43 µM | > 100 µM | – |
